Assay results reported in ChEMBL document CHEMBL5385890, “A JAK tyrosine kinase and pseudokinase Co-inhibition strategy combines enhanced potency and on-demand activation” (Eur J Med Chem, 2023).
The source made the active and inactive calls. No cut-off for these calls is given here.

Assays:
HEL [1] = test: Cytotoxicity against HEL cells assessed as inhibition of cell growth; format: functional, cell-based; details: Homo sapiens
HEL [2] = test: Cytotoxicity against HEL cells assessed as inhibition of cell growth irradiated with 450 nm light and incubated in presence of N-tert-butyl-3-[[5-methyl-2-(4-piperazin-1-ylanilino)pyrimidin-4-yl]amino]benzenesulfonamide; format: functional, cell-based; details: Homo sapiens, light or radiation study
HEL [3] = test: Cytotoxicity against HEL cells assessed as inhibition of cell growth incubated under dark condition in presence of N-tert-butyl-3-[[5-methyl-2-(4-piperazin-1-ylanilino)pyrimidin-4-yl]amino]benzenesulfonamide; format: functional, cell-based; details: Homo sapiens
HEL [4] = test: Cytotoxicity against HEL cells assessed as inhibition of cell growth incubated under hypoxic condition in presence of N-tert-butyl-3-[[5-methyl-2-(4-piperazin-1-ylanilino)pyrimidin-4-yl]amino]benzenesulfonamide; format: functional, cell-based; details: Homo sapiens
HEL [5] = test: Cytotoxicity against HEL cells assessed as inhibition of cell growth incubated under normoxic condition in presence of N-tert-butyl-3-[[5-methyl-2-(4-piperazin-1-ylanilino)pyrimidin-4-yl]amino]benzenesulfonamide; format: functional, cell-based; details: Homo sapiens
HEL [6] = test: Cytotoxicity against HEL cells assessed as inhibition of cell growth incubated under normoxic condition in presence of 3-cyclopropyl-1-(3-{5-[(morpholin-4-yl)methyl]-1H-1,3-benzodiazol-2-yl}-1H-pyrazol-4-yl)urea; format: functional, cell-based; details: Homo sapiens
HEL [7] = test: Antitumor activity against HEL cells xenografted in Balb/c nude mouse assessed as tumor growth inhibition at 25 mg/kg, ip administered once daily for 14 consecutive days relative to control; format: functional, Homo sapiens; details: 336 h, time 14 day, read-out: TGI
HEL [8] = test: Antitumor activity against HEL cells xenografted in Balb/c nude mouse assessed as tumor growth inhibition at 25 mg/kg, ip administered once daily for 14 consecutive days in presence of N-tert-butyl-3-[[5-methyl-2-(4-piperazin-1-ylanilino)pyrimidin-4-yl]amino]benzenesulfonamide relative to control; format: functional, Homo sapiens; details: 336 h, time 14 day, read-out: TGI
HEL [9] = test: Antitumor activity against HEL cells xenografted in Balb/c nude mouse assessed as induction of apoptosis in tumor at 25 mg/kg, ip administered once daily for 14 consecutive days in presence of N-tert-butyl-3-[[5-methyl-2-(4-piperazin-1-ylanilino)pyrimidin-4-yl]amino]benzenesulfonamide by TUNEL assay relative to control; format: functional, organism-based; details: Homo sapiens, time 14.0 day
BaF3 = test: Cytotoxicity against mouse BaF3 cells harboring EPOR JAK2 V617F mutant measured after 24 hrs by XTT assay; format: functional, cell-based; details: BaF3, 24 h

In the case of `C[C@@H]1CCN(C(=O)CC#N)C[C@@H]1N(C)c1ncnc2[nH]ccc12` [TOFACITINIB], the IC50 (HEL [1]) is reported as 3.83 µM.
Work on `O=C(Nc1c[nH]nc1-c1nc2ccc(CN3CCOCC3)cc2[nH]1)NC1CC1` [AT-9283] yielded an IC50 (HEL [2]) of 2180 nM, an IC50 (HEL [3]) of 1410 nM and an IC50 (HEL [4]) of 1340 nM. The IC50 (HEL [5]) was 650 nM, the IC50 (HEL [6]) was 650 nM and the inhibition in vivo at 25 mg/kg (HEL [7]) was 85.9%. For the same compound, the inhibition in vivo at 25 mg/kg (HEL [8]) was 91.2%, the Activity (HEL [9]) was “Active” and the IC50 (HEL [1]) was 1.04 µM.
`Cc1cnc(Nc2ccc(N3CCN(C)CC3)cc2)nc1Nc1cccc(S(=O)(=O)NC(C)(C)C)c1` showed an IC50 (BaF3) of 170 nM.
`N#CC[C@H](C1CCCC1)n1cc(-c2ncnc3[nH]ccc23)cn1` [RUXOLITINIB] gave an IC50 (HEL [1]) of 7.46 µM.
